Measurements as given in BindingDB's records for PubMed 7996470 (University of Michigan, 1994).

Experiments:
[1] = molecular target: T1, Alpha-2C adrenergic receptor (Homo sapiens, UniProt P18825)
T1 sequence (P18825 whole entry): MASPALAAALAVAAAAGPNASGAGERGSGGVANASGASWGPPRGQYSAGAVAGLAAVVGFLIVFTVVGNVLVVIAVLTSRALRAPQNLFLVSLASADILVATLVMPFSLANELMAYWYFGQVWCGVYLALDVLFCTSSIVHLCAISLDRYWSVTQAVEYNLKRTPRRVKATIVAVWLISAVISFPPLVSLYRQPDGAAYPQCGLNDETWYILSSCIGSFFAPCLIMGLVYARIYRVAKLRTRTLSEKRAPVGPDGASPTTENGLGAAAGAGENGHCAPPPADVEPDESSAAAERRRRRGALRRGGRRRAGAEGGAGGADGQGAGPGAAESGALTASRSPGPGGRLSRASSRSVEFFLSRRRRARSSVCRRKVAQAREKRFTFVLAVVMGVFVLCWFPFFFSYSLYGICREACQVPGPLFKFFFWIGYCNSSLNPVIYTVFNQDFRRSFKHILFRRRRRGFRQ

[2] = molecular target: T2, Alpha-2A adrenergic receptor (Homo sapiens, UniProt P08913)
T2 sequence (P08913 whole entry): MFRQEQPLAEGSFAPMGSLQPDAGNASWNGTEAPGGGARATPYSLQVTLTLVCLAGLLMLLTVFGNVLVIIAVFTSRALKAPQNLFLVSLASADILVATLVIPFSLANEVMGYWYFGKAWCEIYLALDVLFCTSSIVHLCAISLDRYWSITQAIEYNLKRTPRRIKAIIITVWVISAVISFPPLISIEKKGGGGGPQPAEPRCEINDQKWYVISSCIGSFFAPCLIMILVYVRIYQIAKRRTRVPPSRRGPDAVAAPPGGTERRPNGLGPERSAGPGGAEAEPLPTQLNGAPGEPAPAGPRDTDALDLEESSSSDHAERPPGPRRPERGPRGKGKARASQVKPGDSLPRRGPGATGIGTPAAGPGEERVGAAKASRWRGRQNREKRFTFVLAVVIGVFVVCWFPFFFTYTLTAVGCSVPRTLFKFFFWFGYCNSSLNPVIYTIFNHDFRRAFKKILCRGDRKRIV

Ki [1] [nM]	Ki [2] [nM]	SMILES
31.8		COc1ccccc1N1CCN(CCC2C(=O)c3ccccc3C(C)(C)C2=O)CC1 (centres undefined) [NSC_122211]
3.18	14.6	COc1cccc(OC)c1OCCNCC1Oc2ccccc2OC1c1ccccc1 (centres undefined) [NSC_185453]

Second part, the compound before the results:

SMILES	Ki [1] [nM]	Ki [2] [nM]
COc1cc(N)c(Cl)cc1C(=O)NC1CC2CCC(C1)N2C (centres undefined) [4-amino-5-chloro-2-methoxy-N-(8-methyl-8-azabicyclo[3.2.1]octan-3-yl)benzamide]	150	
O=C1NCN(c2ccccc2)C12CCN(CC1COc3ccccc3O1)CC2 (centres undefined) [8-(2,3-Dihydro-benzo[1,4]dioxin-2-ylmethyl)-1-phenyl-1,3,8-triaza-spiro[4.5]decan-4-one]	1.04	54.3
CC1c2ccccc2CN1CC1=NCCN1 (centres undefined) [NSC_121850]		5.68
COC1(C2=NCCN2)COc2ccccc2O1 (centres undefined) [RX821002]	1.78	0.62
